{"source": "patent US4861774A", "about": "“Method of treating tumors using tetracyclo compounds” (priority 1984, dated 1989)", "key": {"Human LX-1 lung": {"tested_on": "Human LX-1 lung", "test": "Human LX-1 lung tumor in nude mice (Test 9)", "assay_type": "in vivo, human (in BALB/c nu/nu mice)", "conditions": "5.6 mg/kg i.v., days 10, 14 & 17; evaluation day 21", "experimental": "(§1) Human LX-1 lung or MX-1 mammary (each fragment, 2×2×2 mm), maintained s.c. by serial passage in male BALB/c nu/nu mice, was implanted s.c. to male BALB/c nu/nu mice on day 0, and the test compounds or vehicle were given i.v. to the mice once a day on specified days in Table 9.\n(§2) Tumor weight was calculated as follows: (Tumor length and width were measured by caliper.)\n(§3) Tumor weight (mg)=1/2×a×b^2, where a represents length and b represents width (mm).\n(§4) Tumor weights (initial) and (last) were calculated on the first injection day (just before dosing) and on day 21, 27 or 28 (the last evaluation day), respectively.\n(§5) Five mice were used for each test group and 5 or 10 mice were used for each vehicle-treated control group.\n(§6) Drug efficacy was expressed as percentage of mean tumor weight of the test group to that of the control group. [formula]"}, "[1]": {"tested_on": "mouse lymphocytic leukemia P388 tumor cells", "test": "in vitro cytotoxicity, P388 tumor cells, 72 hours (Test 4)", "assay_type": "cell-based", "conditions": "50% inhibition of cell growth, 37° C.", "experimental": "A suspension of mouse lymphocytic leukemia P388 tumor cells was prepared from a diluted ascitic fluid using Hanks' solution after 7 days of tumor implantation, and centrifuged at 1000 rpm for 15 minutes at cold temperature. The cells were adjusted at a concentration of 2.5×10^6 cell/ml in MEM Dulbecco medium supplemented with 10% foetal bovine serum, penicillin G (60 μg/ml) and streptomycin (20 μg/ml). Then, cells were treated with the graded doses of the test compounds in plastic tissue culture dishes at 37° C. and incubated for 72 hours in humidified atmosphere of 5% carbon dioxide. Concentration of the substance required for 50% inhibition of cell growth (IC50 value) (μg/ml) was determined by plotting the logarithms of the drug concentration versus the growth rate (percentage of control) of the treated cells."}, "L1210 Leukemia [2]": {"tested_on": "L1210 Leukemia", "test": "L1210 Leukemia ascitic tumor in mice (Test 5)", "assay_type": "in vivo, mice (BDF1 or CDF1)", "conditions": "10.0 mg/kg i.p., days 1-9, CDF1 mice; in physiological saline", "source_text": "L1210 Leukemia (1×10^5 cells), maintained i.p. by serial passage in female DBA/2 mice, was implanted i.p. to female BDF1 or CDF1 mice on day 0, and the test compounds or vehicle were given i.p. to the mice once a day on days 1-9.\n(§7) Ten mice were used for each test group, and twenty mice were used for each vehicle-treated control group.\n(§8) Drug efficacy against the ascitic tumors is expressed as percentage of the median (mean) survival time of the test group to that of the control group. [formula] .circle.2 Results"}, "Human MX-1 mammary": {"tested_on": "Human MX-1 mammary", "test": "Human MX-1 mammary tumor in nude mice (Test 9)", "assay_type": "in vivo, human (in BALB/c nu/nu mice)", "conditions": "32. mg/kg (so in the source) i.v., days 10, 14 & 17; evaluation day 21", "experimental": "as §1, §2, §3, §4, §5, §6"}, "Colon 38 carcinoma": {"tested_on": "Colon 38 carcinoma", "test": "in vivo murine solid tumor model, Colon 38 carcinoma (Test 7)", "set-up": "species or system mice", "conditions": "10.0 mg/kg i.v., days 1, 4, 7 and 10; tumor weight on day 21", "experimental": "Colon 38 carcinoma (fragment, 2×2×2 mm), maintained s.c. by serial passage in female C57BL/6 mice, was implanted s.c. to female BDFhd 1 mice on day 0, and the test compounds or vehicle were given i.v. to the mice once a day on days 1, 4, 7 and 10. Tumor weight was measured on day 21.\nas §2, §3\nTen mice were used for each test group or vehicle-treated control group.\nDrug efficacy against the solid tumor is expressed as percentage of the mean tumor weight of the test group to that of the control group. [formula]"}, "B16 Melanoma [3]": {"tested_on": "B16 Melanoma", "test": "B16 Melanoma in mice, graded doses (Test 11)", "assay_type": "in vivo, mice (BDF1)", "conditions": "days 1-9", "experimental": "(§9) B16 Melanoma (1:10 brei, 0.5 ml), maintained s.c. by serial passage in female C57BL/6 mice, was implanted i.p. to female BDF1 mice on day 0, and the test compounds or vehicle were given i.p. to the mice once a day on days 1-9.\nas §7\n(§10) Compound R (which was dissolved in 10% polyoxyethylated (60 mol) hydrogenated castor oil in physiological saline solution)\n(§11) Drug efficacy against the ascitic tumors is expressed as percentage of the median (mean) survival time of the test group to that of the control group. [formula]"}, "B16 Melanoma [4]": {"tested_on": "B16 Melanoma", "test": "B16 Melanoma in mice (Test 5)", "assay_type": "in vivo, mice (BDF1)", "conditions": "3.2 mg/kg i.p., days 1-9; in physiological saline", "experimental": "as §9, §7, §8"}, "L1210 Leukemia [5]": {"tested_on": "L1210 Leukemia", "test": "L1210 Leukemia in mice, graded doses (Test 11)", "assay_type": "in vivo, mice (CDF1)", "conditions": "days 1-9", "experimental": "L1210 Leukemia (1×10^5 cells), maintained i.p. by serial passage in female DBA/2 mice, was implanted i.p. to female CDF1 mice on day 0, and the test compounds or vehicle were given i.p. to the mice once a day on days 1-9.\nas §7, §10, §11"}}}
{"smiles": "CC(=O)Oc1cc(C=O)cc2c1C(COC(N)=O)C1(OC(C)=O)ON2CC2C1N2C(C)=O", "note": "(stereo not drawn) [Compound R, 11-Acetyl-4-formyl-8-carbamoyloxymethyl-14-oxa-1,11-diazatetracyclo[7.4.1.0^2,7.0^10,12]tetradeca-2,4,6-trien-6,9-diyl diacetate]", "values": [{"measurement": "1-T\"/C\"", "setting": "Human LX-1 lung", "value": 90, "unit": "%"}, {"measurement": "Solubility", "setting": "Solubility; acetone", "value": "Soluble"}, {"measurement": "Solubility", "setting": "Solubility; chloroform", "value": "Soluble"}, {"measurement": "Solubility", "setting": "Solubility; methanol", "value": "Soluble"}, {"measurement": "Solubility", "setting": "Solubility; water", "value": "Insoluble"}, {"measurement": "IC50", "setting": "[1]", "value": 0.05, "unit": "µg/mL"}, {"measurement": "T/C", "setting": "L1210 Leukemia [2]", "value": 197, "unit": "%"}, {"measurement": "1-T\"/C\"", "setting": "Human MX-1 mammary", "value": 99, "unit": "%"}, {"measurement": "1-T'/C'", "setting": "Colon 38 carcinoma", "value": 100, "unit": "%"}, {"measurement": "T/C", "setting": "B16 Melanoma [3]; 0.0032 mg/kg i.p.", "value": 106, "unit": "%"}, {"measurement": "T/C", "setting": "B16 Melanoma [3]; 0.01 mg/kg i.p.", "value": 122, "unit": "%"}, {"measurement": "T/C", "setting": "B16 Melanoma [3]; 0.032 mg/kg i.p.", "value": 166, "unit": "%"}, {"measurement": "T/C", "setting": "B16 Melanoma [3]; 0.1 mg/kg i.p.", "value": 219, "unit": "%"}, {"measurement": "T/C", "setting": "B16 Melanoma [3]; 0.32 mg/kg i.p.", "value": 213, "unit": "%"}, {"measurement": "T/C", "setting": "B16 Melanoma [3]; 0.56 mg/kg i.p.", "value": "> 291", "unit": "%"}, {"measurement": "T/C", "setting": "B16 Melanoma [3]; 1.0 mg/kg i.p.", "value": "> 375", "unit": "%"}, {"measurement": "T/C", "setting": "B16 Melanoma [3]; 1.8 mg/kg i.p.", "value": "> 375", "unit": "%"}, {"measurement": "T/C", "setting": "B16 Melanoma [3]; 3.2 mg/kg i.p.", "value": 225, "unit": "%"}, {"measurement": "T/C", "setting": "B16 Melanoma [3]; 5.6 mg/kg i.p.", "value": 134, "unit": "%"}, {"measurement": "T/C", "setting": "B16 Melanoma [3]; 10 mg/kg i.p.", "value": 66, "unit": "%"}, {"measurement": "T/C", "setting": "B16 Melanoma [4]", "value": "> 316", "unit": "%"}, {"measurement": "T/C", "setting": "L1210 Leukemia [5]; 0.1 mg/kg i.p.", "value": 125, "unit": "%"}, {"measurement": "T/C", "setting": "L1210 Leukemia [5]; 0.32 mg/kg i.p.", "value": 131, "unit": "%"}, {"measurement": "T/C", "setting": "L1210 Leukemia [5]; 1.0 mg/kg i.p.", "value": 156, "unit": "%"}, {"measurement": "T/C", "setting": "L1210 Leukemia [5]; 3.2 mg/kg i.p.", "value": 150, "unit": "%"}, {"measurement": "T/C", "setting": "L1210 Leukemia [5]; 5.6 mg/kg i.p.", "value": 163, "unit": "%"}, {"measurement": "T/C", "setting": "L1210 Leukemia [5]; 10 mg/kg i.p.", "value": 106, "unit": "%"}, {"measurement": "T/C", "setting": "L1210 Leukemia [5]; 18 mg/kg i.p.", "value": 88, "unit": "%"}]}
{"smiles": "C=C1c2c(OC(C)=O)cc(C=O)cc2N2CC3C(N3C(C)=O)C1(O)O2", "note": "(stereo not drawn) [Compound S, 11-Acetyl-4-formyl-9-hydroxy-8-methylene-14-oxa-1,11-diazatetracyclo[7.4.1.0^2,7.0^10,12]tetradeca-2,4,6-trien-6-yl acetate]", "values": [{"measurement": "IC50", "setting": "[1]", "value": 0.02, "unit": "µg/mL"}]}
{"smiles": "CC(=O)OCc1cc(OC(C)=O)c2c(c1)N1CC3C(N3C(C)=O)C(O)(O1)C2COC(N)=O", "note": "(stereo not drawn) [Compound T, 11-Acetyl-4-acetoxymethyl-8-carbamoyloxymethyl-9-hydroxy-14-oxa-1,11-diazatetracyclo[7.4.1.0^2,7.0^10,12]tetradeca-2,4,6-trien-6-yl acetate]", "values": [{"measurement": "IC50", "setting": "[1]", "value": 0.02, "unit": "µg/mL"}]}
{"smiles": "CC(=O)OCc1cc(OC(C)=O)c2c(c1)N1CC3C(N3C(C)=O)C(OC(C)=O)(O1)C2COC(N)=O", "note": "(stereo not drawn) [Compound U, 4-Acetoxymethyl-11-acetyl-8-carbamoyloxymethyl-14-oxa-1,11-diazatetracyclo[7.4.1.0^2,7.0^10,12]tetradeca-2,4,6-trien-6,9-diyl diacetate]", "values": [{"measurement": "IC50", "setting": "[1]", "value": "0.01 to 0.02", "unit": "µg/mL"}]}
{"smiles": "COc1cc(C=O)cc2c1C(COC(N)=O)C1(OC(C)=O)ON2CC2C1N2C(C)=O", "note": "(stereo not drawn) [Compound V, 11-Acetyl-8-carbamoyloxymethyl-4-formyl-6-methoxy-14-oxa-1,11-diazatetracyclo[7.4.1.0^2,7.0^10,12]tetradeca-2,4,6-trien-9-yl acetate]", "values": [{"measurement": "IC50", "setting": "[1]", "value": 0.02, "unit": "µg/mL"}]}
{"smiles": "COc1cc(C=O)cc2c1C(COC(N)=O)C1(O)ON2CC2C1N2C(C)=O", "note": "(stereo not drawn) [Compound W, 11-Acetyl-4-formyl-9-hydroxy-6-methoxy-14-oxa-1,11-diazatetracyclo[7.4.1.0^2,7.0^10,12]tetradeca-2,4,6-trien-8-ylmethyl carbamate]", "values": [{"measurement": "IC50", "setting": "[1]", "value": 0.01, "unit": "µg/mL"}]}
